{"source": "patent US11458123B2", "about": "(Arvinas, Inc., priority 2016, dated 2022)"}
{"test_system": "tau protein", "assay": "Tau protein in vitro degradation assay (Western blot, Tau-13 antibody)", "format": "cell-based, human", "settings": "SK-N-SH cells; 72 hours of incubation; tested at 300 nM, 100 nM, 33 nM and 11 nM; Western blot, Tau-13 antibody", "method_in_brief": "(§1)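 SK-N-SH cells, seeded ≥18 h beforehand, were incubated 72 h with tau PROTACs at 1000, 300 and 100 nM or at 300, 100, 33 and 11 nM. Lysates in protease-inhibitor buffer were resolved by SDS-PAGE; tau quantified by Western blot with Tau-13 antibody recognising all human tau forms.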"}
{"smiles": "Cn1c2ccncc2c2ccc(-c3ccc(O[C@H]4C[C@H](C(=O)N5CC6(CC(OCCCCOc7ccc8c(c7)C(=O)N(C7CCC(=O)NC7=O)C8=O)C6)C5)C4)nc3)cc21", "note": "(stereo partly shown) [Compound 157, 2-(2,6-dioxopiperidin-3-yl)-5-(4-((2-((1r,3r)-3-((5-(5-methyl-5H-pyrido[4,3-b]indol-7-yl)pyridin-2-yl)oxy)cyclobutane-1-carbonyl)-2-azaspiro[3.3]heptan-6-yl)oxy)butoxy)isoindoline-1,3-dione]", "Degradation activity* (highest amount of degradation observed at any dosage; tau protein remaining)": "C (>80% tau protein remaining after 72 hours of incubation with the test compound)"}
{"smiles": "Cn1c2ccncc2c2ccc(-c3ccc(O[C@H]4C[C@H](OCCOCCOCCOCCOc5ccc6c(c5)C(=O)N(C5CCC(=O)NC5=O)C6=O)C4)nc3)cc21", "note": "(stereo partly shown) [Compound 70, 2-(2,6-dioxopiperidin-3-yl)-5-(2-(2-(2-(2-((1r,3r)-3-((5-(5-methyl-5H-pyrido[4,3-b]indol-7-yl)pyridin-2-yl)oxy)cyclobutoxy)ethoxy)ethoxy)ethoxy)ethoxy)isoindoline-1,3-dione]", "Degradation activity* (highest amount of degradation observed at any dosage; tau protein remaining)": "A (≤50% tau protein remaining after 72 hours of incubation with the test compound)"}
{"smiles": "Cn1c2ccncc2c2ccc(-c3ccc(C#CCN4CCN(CCCOC5CN(c6ccc7c(c6)C(=O)N(C6CCC(=O)NC6=O)C7=O)C5)CC4)nc3)cc21", "note": "(stereo not shown) [Compound 76, 2-(2,6-dioxopiperidin-3-yl)-5-(3-(3-(4-(3-(5-(5-methyl-5H-pyrido[4,3-b]indol-7-yl)pyridin-2-yl)prop-2-yn-1-yl)piperazin-1-yl)propoxy)azetidin-1-yl)isoindoline-1,3-dione]", "Degradation activity* (highest amount of degradation observed at any dosage; tau protein remaining)": "C (>80% tau protein remaining after 72 hours of incubation with the test compound)"}
{"smiles": "Cn1c2ccncc2c2ccc(-c3cnc(O[C@H]4C[C@H](Oc5ccc(C#CCN6CC(Oc7ccc8c(c7)C(=O)N(C7CCC(=O)NC7=O)C8=O)C6)nc5)C4)c(C(F)(F)F)c3)cc21", "note": "(stereo partly shown) [Compound 142, 2-(2,6-dioxopiperidin-3-yl)-5-((1-(3-(5-((1r,3r)-3-((5-(5-methyl-5H-pyrido[4,3-b]indol-7-yl)-3-(trifluoromethyl)pyridin-2-yl)oxy)cyclobutoxy)pyridin-2-yl)prop-2-yn-1-yl)azetidin-3-yl)oxy)isoindoline-1,3-dione]", "Degradation activity* (highest amount of degradation observed at any dosage; tau protein remaining)": "C (>80% tau protein remaining after 72 hours of incubation with the test compound)"}
{"smiles": "Cn1c2ccncc2c2ccc(-c3ccc(OCCCOc4ccc(C#CCCCCOc5ccc6c(c5)C(=O)N(C5CCC(=O)NC5=O)C6=O)cn4)nc3)cc21", "note": "(stereo not shown) [Compound 146, 2-(2,6-dioxopiperidin-3-yl)-5-((6-(6-(3-((5-(5-methyl-5H-pyrido[4,3-b]indol-7-yl)pyridin-2-yl)oxy)propoxy)pyridin-3-yl)hex-5-yn-1-yl)oxy)isoindoline-1,3-dione]", "Degradation activity* (highest amount of degradation observed at any dosage; tau protein remaining)": "C (>80% tau protein remaining after 72 hours of incubation with the test compound)"}
{"smiles": "Cn1c2ccncc2c2ccc(N3CCN(CCCOCCOCCOCCOCCOc4ccc5c(c4)C(=O)N(C4CCC(=O)NC4=O)C5=O)CC3)cc21", "note": "(stereo not shown) [Compound 210, 2-(2,6-dioxopiperidin-3-yl)-5-((15-(4-(5-methyl-5H-pyrido[4,3-b]indol-7-yl)piperazin-1-yl)-3,6,9,12-tetraoxapentadecyl)oxy)isoindoline-1,3-dione]", "Degradation activity (tau protein remaining; highest amount of degradation observed at any dosage)": "C (>80% tau protein remaining after 72 hours of incubation with the test compound)"}
{"smiles": "O=C1CCC(N2C(=O)c3ccc(OCCOCCOCCOCCOCCOc4ccc(-c5ccc6c(c5)[nH]c5ccncc56)cn4)cc3C2=O)C(=O)N1", "note": "(stereo not shown) [Compound 51, 5-((14-((5-(5H-pyrido[4,3-b]indol-7-yl)pyridin-2-yl)oxy)-3,6,9,12-tetraoxatetradecyl)oxy)-2-(2,6-dioxopiperidin-3-yl)isoindoline-1,3-dione]", "Degradation activity* (highest amount of degradation observed at any dosage; tau protein remaining)": "A (≤50% tau protein remaining after 72 hours of incubation with the test compound)"}
{"test_system": "tau protein", "assay": "Tau protein in vitro degradation assay (Western blot, Tau-13 antibody)", "format": "cell-based, human", "settings": "SK-N-SH cells; 72 hours of incubation; tested at 1000 nM, 300 nM and 100 nM", "method_in_brief": "as §1"}
{"smiles": "Cc1ncsc1-c1ccc(CNC(=O)[C@@H]2C[C@@H](O)CN2C(=O)[C@@H](NC(=O)COCCOCCOCCOCCOc2ccc(-c3ccc4c(c3)[nH]c3ccncc34)cn2)C(C)(C)C)cc1", "note": "[Compound 6, (2S,4R)-1-((S)-17-(5-(5H-pyrido[4,3-b]indol-7-yl)pyridin-2-yloxy)-2-tert-butyl-4-oxo-6,9,12,15-tetraoxa-3-azaheptadecane)-4-hydroxy-N-(4-(4-methylthiazol-5-yl)benzyl)pyrrolidine-2-carboxamide]", "Activity* (highest amount of degradation observed at any dosage, as tau protein remaining)": "C (>80% tau protein remaining after 72 hours of incubation with the test compound)"}
{"smiles": "Cc1ncoc1-c1ccc([C@H](C)NC(=O)[C@@H]2C[C@@H](O)CN2C(=O)[C@@H](NC(=O)COCCOCCOCC(=O)N2CCN(c3ccn4c(n3)nc3ccccc34)CC2)C(C)(C)C)cc1", "note": "[Compound 21, (2S,4R)-1-((S)-14-(4-(benzo[4,5]imidazo[1,2-a]pyrimidin-2-yl)piperazin-1-yl)-2-(tert-butyl)-4,14-dioxo-6,9,12-trioxa-3-azatetadecanoyl)-4-hydroxy-N—((S)-1-(4-(4-methyloxazol-5-yl)phenyl)ethyl)pyrrolidine-2-carboxamide]", "Activity* (highest amount of degradation observed at any dosage, as tau protein remaining)": "C (>80% tau protein remaining after 72 hours of incubation with the test compound)"}
{"smiles": "Cc1ncsc1-c1ccc(CNC(=O)[C@@H]2C[C@@H](O)CN2C(=O)[C@@H](NC(=O)COCCOCCOCCOCC(O)COc2ccc3nc(-c4ccc(N(C)C)cc4)ccc3c2)C(C)(C)C)cc1", "note": "(stereo partly drawn) [Compound 46, (2S,4R)-1-((2S)-2-tert-butyl-18-(2-(4-(dimethylamino)phenyl)quinolin-6-yloxy)-17-hydroxy-4-oxo-6,9,12,15-tetraoxa-3-azaoctadecane)-4-hydroxy-N-(4-(4-methylthiazol-5-yl)benzyl)pyrrolidine-2-carboxamide]", "Activity* (highest amount of degradation observed at any dosage, as tau protein remaining)": "C (>80% tau protein remaining after 72 hours of incubation with the test compound)"}
